Data taken from patent US5837687A, “Azapeptide derivative” (Fujirebio Inc., priority 1994, dated 1998).
Like-named read-outs stand apart in the source and are kept apart here. Peptide text beside a SMILES is read from it. * marks the point of attachment. Boc = CC(C)(C)OC(=O)*; OBn = c1ccc(CO*)cc1

Legend:
[1] = biological target: T1, NKA receptor (Mesocricetus auratus, UniProt P51144); experiment: Activity to constriction of hamster respiratory tracts caused by NKA (isolated tissue, tension); type: cell-based
T1 construct: from tissue; host or cells: hamster respiratory tract (trachea) ring specimens
T1 sequence (P51144 1-384): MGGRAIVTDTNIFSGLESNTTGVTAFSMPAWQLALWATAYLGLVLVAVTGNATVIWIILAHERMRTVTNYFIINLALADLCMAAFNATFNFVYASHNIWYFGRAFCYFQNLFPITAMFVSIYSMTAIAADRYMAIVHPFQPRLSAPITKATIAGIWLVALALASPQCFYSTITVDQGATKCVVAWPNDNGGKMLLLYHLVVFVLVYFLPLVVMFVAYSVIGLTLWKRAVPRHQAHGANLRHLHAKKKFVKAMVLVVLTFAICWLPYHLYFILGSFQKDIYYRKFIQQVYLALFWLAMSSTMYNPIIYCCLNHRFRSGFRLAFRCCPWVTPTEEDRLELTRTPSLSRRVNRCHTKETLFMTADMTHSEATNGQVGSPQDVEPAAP
Procedure: The activity of the azapeptide derivative of the present invention to a NKA receptor was evaluated by the following method.
(1) Activity to constriction of hamster respiratory tracts caused by NKA
Respiratory tracts were taken out from male Syrian strain Golden hamsters having a body weight of 100 to 180 g, and cyclic specimens having a width of 3 to 6 mm were prepared. The specimens were incubated at 37° C. and suspended by loading a static tension of 0.5 g, in a reaction tank charged with 15 ml of a Tyrode solution (137 mM of NaCl, 2.7 mM of KCl, 1.8 mM of CaCl2, 1.02 mM of MgCl2, 11.9 mM of NaHCO3, 0.42 mM of NaH2 PO4 and 5.5 mM of glucose) in which 95% O2 -5% CO2 had been passed.
The compound to be tested was charged into the reaction tank and maintained for 5 minutes. 1×10^-7 M of NKA was charged into the reaction tank, and tension caused thereby was recorded. The examined effect of the tested compound as an antagonist was shown by IC50.

[2] = biological target: T2, NKA receptor (Cavia porcellus, UniProt Q64077); experiment: Activity to constriction of guinea pig respiratory tracts caused by NKA (in vivo, excess air amount); conditions: anesthetized guinea pigs, cervical vein; for Controlling rate (%) 1 min: 2 nmol/kg NKA given 1 min after test compound; for Controlling rate (%) 15 min: 2 nmol/kg NKA given 15 min after test compound
T2 construct: Male Hartley strain guinea pigs having a body weight of 350 to 500 g were anesthetized; from tissue; host or cells: whole anaesthetized guinea pig (airways, in vivo)
T2 sequence (Q64077 1-402): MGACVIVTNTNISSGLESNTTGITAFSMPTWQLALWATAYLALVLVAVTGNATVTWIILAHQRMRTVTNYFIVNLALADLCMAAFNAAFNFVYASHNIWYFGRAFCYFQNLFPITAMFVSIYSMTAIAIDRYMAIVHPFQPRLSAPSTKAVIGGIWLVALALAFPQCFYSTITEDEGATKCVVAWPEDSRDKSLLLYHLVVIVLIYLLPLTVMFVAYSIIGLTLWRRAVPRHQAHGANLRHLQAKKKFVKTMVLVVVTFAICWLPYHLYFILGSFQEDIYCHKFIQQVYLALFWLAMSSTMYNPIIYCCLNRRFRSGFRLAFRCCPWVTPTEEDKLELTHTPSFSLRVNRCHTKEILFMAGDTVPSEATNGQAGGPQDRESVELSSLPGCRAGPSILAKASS
Procedure: (2) Activity to constriction of guinea pig respiratory tracts caused by NKA
Male Hartley strain guinea pigs having a body weight of 350 to 500 g were anesthetized by administering 1.5 g/kg of urethane into abdominal cavities thereof. Cannulas made of polyethylene were inserted into cervical veins and respiratory tracts. From the cervical vein cannulas, 1 mg of gallamine was administered to stop respiration. The respiratory tract cannulas were connected to a respirator, and artificial respiration was carried out with an air-supplying amount at one time of 4 to 6 ml and an air-supplying frequency of 70 times/min. Side branches of the respiratory tract cannulas were introduced into a water tank, and a hydraulic pressure of 8 cm H2 O was loaded. Excess air amounts exceeding the above hydraulic pressure and discharged were measured. From the cervical vein cannulas, 2 nmol/kg of NKA was administered, each compound to be tested was administered after 15 minutes, and further 2 nmol/kg of NKA was administered after 1, 15, 30, 45 and 60 minutes, respectively. The increased amounts of excess air after the respective NKA administrations were measured, and percentages relative to the increased amounts of excess air when the respiratory tracts were completely closed were determined, which were defined as respiratory constriction rates. The decreased ratios of the respiratory constriction rates after administering the compounds to be tested to the respiratory constriction rates before administering the compounds to be tested were shown by percentages, which were defined as controlling rates. The controlling rates were regarded as an effect of the compound to be tested as an antagonist.

[3] = mole concentration giving 50% control of tension caused by 1×10^-7 M NKA, compound maintained 5 minutes, hamster respiratory tract specimens, read-out: IC50

Molecule	IC50 [1]	further results
NC(=O)C[C@H](NC(=O)OCc1ccccc1)C(=O)N[C@@H](Cc1c[nH]c2ccccc12)C(=O)NN(Cc1ccccc1)C(=O)NCCOCc1ccccc1 [Example 12, Z-Asn-Trp-AzPhe-NH(CH2)2 OCH2 Ph]	4.5 nM	Controlling rate (%) 1 min [2]: 19.5%; Controlling rate (%) 15 min [2]: 73.2%; Controlling rate (%) 30 min ([2]; 2 nmol/kg NKA given 30 min after test compound): 62.2%; Controlling rate (%) 45 min ([2]; 2 nmol/kg NKA given 45 min after test compound): 54.8%; Controlling rate (%) 60 min ([2]; 2 nmol/kg NKA given 60 min after test compound): 51.7%
CC(C)(C)OC(=O)N[C@@H](CCC(N)=O)C(=O)N[C@@H](Cc1c[nH]c2ccccc12)C(=O)NN(Cc1ccc(F)cc1)C(=O)NCCOCc1ccccc1 [Example 30 (2), Boc-Gln-Trp-AzPhe(4-F)-NH(CH2)2 OCH2 Ph]	1.1 nM	
CC(C)(C)NC(=O)N[C@@H](CCC(N)=O)C(=O)N[C@@H](Cc1c[nH]c2ccccc12)C(=O)NN(Cc1ccc(F)cc1)C(=O)NCCOCc1ccccc1 [Example 31, t-Bu-NHCO-Gln-Trp-AzPhe(4-F)-NH(CH2)2 OCH2 Ph]	0.42 nM	
COc1ccc(CNC(=O)N(Cc2ccc(OCc3ccccc3)cc2)NC(=O)[C@H](Cc2c[nH]c3ccccc23)NC(=O)[C@H](CCC(N)=O)NC(=O)OC(C)(C)C)c(OC)c1 [Example 32 (2), Boc-Gln-Trp-AzTyr(CH2 Ph)-NHDmob]	7700 nM	
Cc1ccccc1CN(NC(=O)[C@H](Cc1c[nH]c2ccccc12)NC(=O)[C@H](CCC(N)=O)NC(=O)NC(C)(C)C)C(=O)NCCOCc1ccccc1 [Example 33 (3), t-Bu-NHCO-Gln-Trp-AzPhe(2-Me)-NH(CH2)2 OCH2 Ph]	0.16 nM	
Cc1cccc(CN(NC(=O)[C@H](Cc2c[nH]c3ccccc23)NC(=O)[C@H](CCC(N)=O)NC(=O)NC(C)(C)C)C(=O)NCCOCc2ccccc2)c1 [Example 34 (3), t-Bu-NHCO-Gln-Trp-AzPhe(3-Me)-NH(CH2)2 OCH2 Ph]	3.9 nM	
Cc1ccc(CN(NC(=O)[C@H](Cc2c[nH]c3ccccc23)NC(=O)[C@H](CCC(N)=O)NC(=O)NC(C)(C)C)C(=O)NCCOCc2ccccc2)cc1 [Example 35 (3), t-Bu-NHCO-Gln-Trp-AzPhe(4-Me)-NH(CH2)2 OCH2 Ph]	0.82 nM	
CC(C)c1ccc(CN(NC(=O)[C@H](Cc2c[nH]c3ccccc23)NC(=O)[C@H](CCC(N)=O)NC(=O)NC(C)(C)C)C(=O)NCCOCc2ccccc2)cc1 [Example 36 (3), t-Bu-NHCO-Gln-Trp-AzPhe(4-iPr)-NH(CH2)2 OCH2 Ph]	69 nM	
Cc1ccc(CN(NC(=O)[C@H](Cc2c[nH]c3ccccc23)NC(=O)[C@H](CCC(N)=O)NC(=O)NC(C)(C)C)C(=O)NCCOCc2ccccc2)c(C)c1 [Example 37 (3), t-Bu-NHCO-Gln-Trp-AzPhe(2,4-diMe)-NH(CH2)2 OCH2 Ph]	0.27 nM	
Cc1ccc(C)c(CN(NC(=O)[C@H](Cc2c[nH]c3ccccc23)NC(=O)[C@H](CCC(N)=O)NC(=O)NC(C)(C)C)C(=O)NCCOCc2ccccc2)c1 [Example 38 (3), t-Bu-NHCO-Gln-Trp-AzPhe(2,5-diMe)-NH(CH2)2 OCH2 Ph]	0.68 nM	
CC(C)(C)NC(=O)N[C@@H](CCC(N)=O)C(=O)N[C@@H](Cc1c[nH]c2ccccc12)C(=O)NN(Cc1ccccc1F)C(=O)NCCOCc1ccccc1 [Example 39 (3), t-Bu-NHCO-Gln-Trp-AzPhe(2-F)-NH(CH2)2 OCH2 Ph]	0.61 nM	
CC(C)(C)NC(=O)N[C@@H](CCC(N)=O)C(=O)N[C@@H](Cc1c[nH]c2ccccc12)C(=O)NN(Cc1ccccc1C(F)(F)F)C(=O)NCCOCc1ccccc1 [Example 40 (3), t-Bu-NHCO-Gln-Trp-AzPhe(2-CF3)-NH(CH2)2 OCH2 Ph]	0.31 nM	
CC(C)(C)NC(=O)N[C@@H](CCC(N)=O)C(=O)N[C@@H](Cc1c[nH]c2ccccc12)C(=O)NN(Cc1ccccc1)C(=O)NCCOCc1ccc2ccccc2c1 [Example 41 (3), t-Bu-NHCO-Gln-Trp-AzPhe-NH(CH2)2 O-(2-naphthylmethyl)]	20 nM	
CC(C)(C)NC(=O)N[C@@H](CCC(N)=O)C(=O)N[C@@H](Cc1c[nH]c2ccccc12)C(=O)NN(Cc1ccccc1)C(=O)NCCOCc1cccnc1 [Example 42 (3), t-Bu-NHCO-Gln-Trp-AzPhe-NH(CH2)2 O-(3-pyridylmethyl)]	16 nM	
CC(C)(C)NC(=O)N[C@@H](CCC(N)=O)C(=O)N[C@@H](Cc1c[nH]c2ccccc12)C(=O)NN(Cc1ccccc1)C(=O)NCCOC(c1ccccc1)c1ccccc1 [Example 44 (2), t-Bu-NHCO-Gln-Trp-AzPhe-NH(CH2)2 O-benzhydryl]	230 nM	
CC(C)(C)OC(=O)N[C@@H](CC(=O)OCc1ccccc1)C(=O)N[C@@H](CCC(N)=O)C(=O)N[C@@H](Cc1c[nH]c2ccccc12)C(=O)N[C@@H](Cc1ccccc1)C(N)=O [Reference example 14, Boc-Asp(OBzl)-Gln-Trp-Phe-NH2, reference compound] (Boc-D(OBn)QWF-NH2)		IC50 [1, 3]: 330 nM
Ac-LDQWFG-NH2 [Reference example 13, Ac-Leu-Asp-Gln-Trp-Phe-Gly-NH2, reference compound]		IC50 [1, 3]: 22 nM; Controlling rate (%) 1 min [2]: 11.9%; Controlling rate (%) 15 min [2]: 3.9%
